# Biological target: mouse recombinant isozyme PKCα (Mus musculus, UniProt P20444)
# Assay: [3H]PDBu binding assay (displacement of bound [20-3H]phorbol 12,13-dibutyrate)
# Details: displacement of [3H]PDBu from PKCα in the presence of calcium and phosphatidylserine; read-out: inhibitory dissociation constant (Ki)
# Protocol: The inhibitory dissociation constant (Ki) of each bryologue ligand was determined by the ability of the ligand to displace bound [20-^3H]phorbol 12,13-dibutyrate (PDBu) from mouse recombinant isozyme PKC α in the presence of calcium and phosphatidylserine, using a polyethylene glycol precipitation assay developed in our laboratory as described elsewhere. Briefly, the assay mixture (250 μL) contained 50 mM Tris-HCl (pH 7.4 at room temperature), 100 μg/mL phosphatidylserine, 0.1 mM Ca^2+, 4 mg/mL bovine immunoglobulin G and 0.003% Tx-100, 2 nM [^3H]PDBu and various concentrations of the competing ligand. […] The radioactivity was determined by scintillation counting, using Cytoscint (ICN, Costa Mesa, Calif.). Specific binding was calculated as the difference between total and nonspecific PDBu binding. The Inhibitory dissociation constants (Ki) were calculated using the method previously described by Blumberg and Lewin.
# The inhibitory dissociation constant (Ki) of MERLE 28 was determined by the ability of the ligand to displace bound [20-^3H]phorbol 12,13-dibutyrate (PDBu) from mouse recombinant isozyme PKCα in the presence of calcium and phosphatidylserine, using a polyethylene glycol precipitation assay previously described by Blumberg and Lewin. […] The radioactivity was determined by scintillation counting, using Cytoscint (ICN, Costa Mesa, Calif.). […]
smiles,measurement,value
C=C1C[C@H]2C[C@H]3C[C@@H](OC(C)=O)C[C@@H](C[C@@H](O)CC(=O)O[C@@H]([C@@H](C)O)C[C@@H]4C/C(=C\C(=O)OC)[C@H](OC(=O)CCCCCCC)[C@@](O)(O4)C(C)(C)/C=C/[C@@H](C1)O2)O3 [MERLE 27],Ki,3 ± 0.6 nM

# From patent publication US9096550B2, “Bryostatin analogues and methods of making and using thereof” (UNIVERSITY OF UTAH RESEARCH FOUNDATION, priority 2008, dated 2015)
